Laboratory results from US20230146675A1, “PYRIMIDO[5,4-d]PYRIMIDINE DERIVATIVES AS ENT INHIBITORS FOR THE TREATMENT OF CANCERS, AND COMBINATION THEREOF WITH ADENOSINE RECEPTOR ANTAGONISTS” (ITEOS BELGIUM SA, priority 2020, published 2023).

Target: T1, human ENT1 (Homo sapiens, UniProt Q99808)
T1 sequence (Q99808 1-456): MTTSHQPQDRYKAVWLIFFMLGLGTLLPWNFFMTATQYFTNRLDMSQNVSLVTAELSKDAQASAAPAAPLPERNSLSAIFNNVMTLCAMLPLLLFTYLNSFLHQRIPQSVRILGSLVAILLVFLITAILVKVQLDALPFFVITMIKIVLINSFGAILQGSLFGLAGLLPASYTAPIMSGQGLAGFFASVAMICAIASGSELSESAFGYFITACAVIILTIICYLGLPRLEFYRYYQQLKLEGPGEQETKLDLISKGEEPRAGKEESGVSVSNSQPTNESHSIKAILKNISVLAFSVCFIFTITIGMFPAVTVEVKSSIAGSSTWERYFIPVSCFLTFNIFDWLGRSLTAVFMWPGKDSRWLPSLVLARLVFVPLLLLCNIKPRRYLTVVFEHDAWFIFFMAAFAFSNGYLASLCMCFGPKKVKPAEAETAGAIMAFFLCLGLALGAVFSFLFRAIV
Test: ENT1 binding assay (competition with Sahenta-DY647 on JAR cells)
Parameters: JAR cells expressing ENT1 were bought from ATCC; host or cells: JAR cells
Details: binned IC50
In short: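 JAR cells were incubated with test compounds and the fluorescent ligand Sahenta-DY647 in competition. Plates were washed twice by centrifugation (4 min, 400 rcf, 4 °C). Binding potency was derived from the final fluorescence.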

Row | IC50 | Compound
1 | 500 to 1000 nM | COCCN(CCOC)c1nc(N2CCN(C)C(=O)C2)c2nc(N3CCc4[nH]cnc4C3)nc(N3CCC(OC)CC3)c2n1 [Compound 291, 4-(2-(bis(2-methoxyethyl)amino)-8-(4-methoxypiperidin-1-yl)-6-(1,4,6,7-tetrahydro-5H-imidazo[4,5-c]pyridin-5-yl)pyrimido[5,4-d]pyrimidin-4-yl)-1-methylpiperazin-2-one]
2 | < 100 nM | COCCN(CCOC)c1nc(N2CCN(C)C(=O)C2)c2nc(N(CCOC)CCOC)nc(NCc3cccc(Cl)c3)c2n1 [Compound 208, 4-(2,6-bis(bis(2-methoxyethyl)amino)-8-((3-chlorobenzyl)amino)pyrimido[5,4-d]pyrimidin-4-yl)-1-methylpiperazin-2-one]
3 | < 100 nM | COCCN(CCO)c1nc(N2CCN(C)C(=O)C2)c2nc(N(CCOC)CCOC)nc(N3CCC(OC)CC3)c2n1 [Compound 275, 4-(6-(bis(2-methoxyethyl)amino)-2-((2-hydroxyethyl)(2-methoxyethyl)amino)-8-(4-methoxypiperidin-1-yl)pyrimido[5,4-d]pyrimidin-4-yl)-1-methylpiperazin-2-one]
4 | 100 to 500 nM | COCCN(CCOC)c1nc(N2CCN(C)C(=O)C2)c2nc(N3CCn4ccnc4C3)nc(N3CCC(OC)CC3)c2n1 [Compound 296, 4-(2-(bis(2-methoxyethyl)amino)-6-(5,6-dihydroimidazo[1,2-a]pyrazin-7(8H)-yl)-8-(4-methoxypiperidin-1-yl)pyrimido[5,4-d]pyrimidin-4-yl)-1-methylpiperazin-2-one]
5 | 500 to 1000 nM | CCN(CCN1CCCCC1)c1nc(N2CCC(OC)CC2)c2nc(N(CCOC)CCOC)nc(N3CCC(OC)CC3)c2n1 [Compound 133, N2-ethyl-N6,N6-bis(2-methoxyethyl)-4,8-bis(4-methoxypiperidin-1-yl)-N2-(2-(piperidin-1-yl)ethyl)pyrimido[5,4-d]pyrimidine-2,6-diamine]
6 | 100 to 500 nM | COCCN(CCOC)c1nc(N2CC[C@H](OC)C2)c2nc(N(CCOC)CCOC)nc(N3CCC(OC)CC3)c2n1 [Compound 106, (S)-N2,N2,N6,N6-tetrakis(2-methoxyethyl)-4-(4-methoxypiperidin-1-yl)-8-(3-methoxypyrrolidin-1-yl)pyrimido[5,4-d]pyrimidine-2,6-diamine]
7 | 500 to 1000 nM | COCCN(CCOC)c1nc(N2CCC(OC)CC2)c2nc(N(CCO)CCO)nc(N3CCN(C4CC4)C(=O)C3)c2n1 [Compound 315, 4-(2-(bis(2-hydroxyethyl)amino)-6-(bis(2-methoxyethyl)amino)-8-(4-methoxypiperidin-1-yl)pyrimido[5,4-d]pyrimidin-4-yl)-1-cyclopropylpiperazin-2-one]
8 | 100 to 500 nM | COCCN(CCOC)c1nc(N2CCN(c3ncn(C)n3)CC2)c2nc(N(CCOC)CCOC)nc(N3CCN(c4ncn(C)n4)CC3)c2n1 [Compound 131, N2,N2,N6,N6-tetrakis(2-methoxyethyl)-4,8-bis(4-(1-methyl-1H-1,2,4-triazol-3-yl)piperazin-1-yl)pyrimido[5,4-d]pyrimidine-2,6-diamine]
9 | 500 to 1000 nM | COCCN(CCOC)c1nc(N2CCC(OC)CC2)c2nc(N(CCOC)CCOC)nc(N3CCC(NC(C)=O)CC3)c2n1 [Compound 88, N-(1-(2,6-bis(bis(2-methoxyethyl)amino)-8-(4-methoxypiperidin-1-yl)pyrimido[5,4-d]pyrimidin-4-yl)piperidin-4-yl)acetamide]
10 | 100 to 500 nM | COCCN(CCOC)c1nc(N2CCN(C)C(=O)C2)c2nc(N(CCOC)CCOC)nc(N3CCN(C)C(=O)C3)c2n1 [Compound 187, 4,4′-(2,6-bis(bis(2-methoxyethyl)amino)pyrimido[5,4-d]pyrimidine-4,8-diyl)bis(1-methylpiperazin-2-one)]
11 | 500 to 1000 nM | COCCN(CCOC)c1nc(N2CCC(OC)CC2)c2nc(N(CCOC)CCC(N)=O)nc(N3CCC(OC)CC3)c2n1 [Compound 197, 3-((6-(bis(2-methoxyethyl)amino)-4,8-bis(4-methoxypiperidin-1-yl)pyrimido[5,4-d]pyrimidin-2-yl)(2-methoxyethyl)amino)propanamide]
12 | 100 to 500 nM | COCCN(CCOC)c1nc(N2CCN(C)C(=O)C2)c2nc(N3CCN(S(C)(=O)=O)CC3)nc(N3CCC(OC)CC3)c2n1 [Compound 279, 4-(2-(bis(2-methoxyethyl)amino)-8-(4-methoxypiperidin-1-yl)-6-(4-(methylsulfonyl)piperazin-1-yl)pyrimido[5,4-d]pyrimidin-4-yl)-1-methylpiperazin-2-one]
13 | 100 to 500 nM | COCCN(CCOC)c1nc(N2CCN(c3nccc(OC)n3)CC2)c2nc(N(CCOC)CCOC)nc(N3CCC(OC)CC3)c2n1 [Compound 125, N2,N2,N6,N6-tetrakis(2-methoxyethyl)-4-(4-methoxypiperidin-1-yl)-8-(4-(4-methoxypyrimidin-2-yl)piperazin-1-yl)pyrimido[5,4-d]pyrimidine-2,6-diamine]
14 | 100 to 500 nM | COCCN(CCOC)c1nc(N2CCS(=O)(=O)CC2)c2nc(N(CCOC)CCOC)nc(N3CCN(c4ncn(C)n4)CC3)c2n1 [Compound 217, 4-(2,6-bis(bis(2-methoxyethyl)amino)-8-(4-(1-methyl-1H-1,2,4-triazol-3-yl)piperazin-1-yl)pyrimido[5,4-d]pyrimidin-4-yl)thiomorpholine 1,1-dioxide]
15 | < 100 nM | COCCN(CCOC)c1nc(N2CCc3c(cnn3C)C2)c2nc(N(CCOC)CCOC)nc(N3CCN(C)C(=O)C3)c2n1 [Compound 255, 4-(2,6-bis(bis(2-methoxyethyl)amino)-8-(1-methyl-1,4,6,7-tetrahydro-5H-pyrazolo[4,3-c]pyridin-5-yl)pyrimido[5,4-d]pyrimidin-4-yl)-1-methylpiperazin-2-one]
16 | 100 to 500 nM | COCCN(CCOC)c1nc(N2CCn3nc(C)nc3C2)c2nc(N(CCO)CCO)nc(N3CCC(OC)CC3)c2n1 [Compound 323, 2,2′-((6-(bis(2-methoxyethyl)amino)-4-(4-methoxypiperidin-1-yl)-8-(2-methyl-5,6-dihydro-[1,2,4]triazolo[1,5-a]pyrazin-7(8H)-yl)pyrimido[5,4-d]pyrimidin-2-yl)azanediyl)bis(ethan-1-ol)]
17 | 100 to 500 nM | COCCN(CCOC)c1nc(N2CCC(OC)CC2)c2nc(N(CCOC)CCOC)nc(OCc3cccc(C#N)c3)c2n1 [Compound 156, 3-(((2,6-bis(bis(2-methoxyethyl)amino)-8-(4-methoxypiperidin-1-yl)pyrimido[5,4-d]pyrimidin-4-yl)oxy)methyl)benzonitrile]
18 | 100 to 500 nM | COCCN(CCOC)c1nc(N2CCC(OC)CC2)c2nc(N(CCOC)CCOC)nc(NC3CCCC3)c2n1 [Compound 167, N4-cyclopentyl-N2,N2,N6,N6-tetrakis(2-methoxyethyl)-8-(4-methoxypiperidin-1-yl)pyrimido[5,4-d]pyrimidine-2,4,6-triamine]
19 | < 100 nM | COCCN(CCOC)c1nc(NCc2cccc(C#N)c2)c2nc(N(CCO)CCO)nc(N3CCC(OC)CC3)c2n1 [Compound 325, 3-(((6-(bis(2-hydroxyethyl)amino)-2-(bis(2-methoxyethyl)amino)-8-(4-methoxypiperidin-1-yl)pyrimido[5,4-d]pyrimidin-4-yl)amino)methyl)benzonitrile]
20 | 100 to 500 nM | COCCN(CCOC)c1nc(N2CCC(OC)CC2)c2nc(N3CCn4ncnc4C3)nc(N3CCN(C)C(=O)C3)c2n1 [Compound 282, 4-(6-(bis(2-methoxyethyl)amino)-2-(5,6-dihydro-[1,2,4]triazolo[1,5-a]pyrazin-7(8H)-yl)-8-(4-methoxypiperidin-1-yl)pyrimido[5,4-d]pyrimidin-4-yl)-1-methylpiperazin-2-one]
21 | 500 to 1000 nM | COCCN(CCOC)c1nc(N2CCC(OC)CC2)c2nc(N(CCOC)CCOC)nc(NCCCc3ccccn3)c2n1 [Compound 177, N2,N2,N6,N6-tetrakis(2-methoxyethyl)-8-(4-methoxypiperidin-1-yl)-N4-(3-(pyridin-2-yl)propyl)pyrimido[5,4-d]pyrimidine-2,4,6-triamine]
22 | 100 to 500 nM | COCCN(CCOC)c1nc(N2CCN(C)C(=O)C2)c2nc(N(CCOC)CCOC)nc(N3CCCCC3)c2n1 [Compound 319, 4-(2,6-bis(bis(2-methoxyethyl)amino)-8-(piperidin-1-yl)pyrimido[5,4-d]pyrimidin-4-yl)-1-methylpiperazin-2-one]
23 | 100 to 500 nM | COCCN(CCOC)c1nc(N2CCN(C(C)=O)CC2)c2nc(N(CCOC)CCOC)nc(N3CCC(OC)CC3)c2n1 [Compound 74, 1-(4-(2,6-bis(bis(2-methoxyethyl)amino)-8-(4-methoxypiperidin-1-yl)pyrimido[5,4-d]pyrimidin-4-yl)piperazin-1-yl)ethanone]
24 | < 100 nM | COCCN(CCOC)c1nc(N2CCc3nocc3C2)c2nc(N(CCOC)CCOC)nc(N3CCN(C)C(=O)C3)c2n1 [Compound 254, 4-(2,6-bis(bis(2-methoxyethyl)amino)-8-(6,7-dihydroisoxazolo[4,3-c]pyridin-5(4H)-yl)pyrimido[5,4-d]pyrimidin-4-yl)-1-methylpiperazin-2-one]
25 | 100 to 500 nM | COCCN(CCOC)c1nc(N2CCN(c3ncn(C)n3)CC2)c2nc(N(CCOC)CCOC)nc(N(C)Cc3cccc(C(N)=O)c3)c2n1 [Compound 249, 3-(((2,6-bis(bis(2-methoxyethyl)amino)-8-(4-(1-methyl-1H-1,2,4-triazol-3-yl)piperazin-1-yl)pyrimido[5,4-d]pyrimidin-4-yl)(methyl)amino)methyl)benzamide]
